Source: patent US9125912B1, “Method of treating ulcerative colitis” (KING SAUD UNIVERSITY, priority 2015, dated 2015)

System: ulcerative colitis induced by acetic acid
Assay: Ulcerative colitis induced by acetic acid in rats, macroscopic parameters
Type: in vivo, Male Wistar rats
Settings: from ulcer index, oral once daily for 5 days before induction, extracts 400 mg/kg, volatile oil 50 mg/kg, dexamethasone 0.1 mg/kg
Source text: The extracts (total alcohol extract, total phenolic contents and volatile oil) of the three plants under investigation were freshly suspended in distilled water just before administration by the aid of Tween 80.
The extracts of Ocimum americanum, Ocimum basilicum and Ocimum basilicum var. thyrsiflora were independently administered to rats five days prior to ulcer induction. In detail, twelve experimental groups, each of 6 Male Wistar rats were used. Rats of groups 1 and 2 received the vehicle (5 mL/kg) and served as normal control and control colitis groups. […] Rats of groups 4-12 received the volatile oil extract, the total alcohol extract and the total phenolic extract of each of the three plants. Doses of 400 mg/kg of the total alcohol extract and the phenolic content were administered. Doses of 50 mg/kg of the volatile oil were administered. All medications were administered orally, once daily for 5 successive days and the last dose was administered 2 hours before colitis induction.
Animals were fasted overnight, with access to water ad libitum. Under ether anesthesia a solution of 2 mL (4%, v/v) acetic acid in saline was slowly infused into the colon through the polyethylene catheter 2 mm diameter that was inserted into the lumen of the colon via the anus to a distance of 8 cm. […]
The colon specimens were weighted and wet weight/length ratio was calculated for all the rats. The specimens were examined under a dissecting microscope and the lesion scores were quantified by scoring system (0-5).
Ulcer area was measured using plane glass square. Each cell on the glass square was 1 mm^2 in area and the number of cells was counted and the ulcer area was determined for each colon.
Ulcer index (UI) was measured by summing the lesion score and the ulcer area for each colon specimen. The curative ratio was determined according to the formula: Curative ratio=Control UI−Test UI/Control UI×100.
Data were expressed as mean±S. D. Statistical analysis was done by using SPSS 14. Statistical significance of differences between two means was assessed by unpaired Student's ‘t’ test. […]

SMILES: C[C@@H]1C[C@H]2[C@@H]3CCC4=CC(=O)C=C[C@]4(C)[C@@]3(F)[C@@H](O)C[C@]2(C)[C@@]1(O)C(=O)CO [Dexamethasone]
- % Protection from control colitis: 71.54%
- % Protection from control colitis (listed as dexamesthasone): about 71.54%
- % Protection from control colitis (listed as dexamethasone): 71.54%
